Measured values from the NIST ThermoML archive (doi:10.1016/j.jct.2018.12.018).
“And” between values parts separate entries of the source, which are not always exact repeats. Equal entries are not always repeated.

Details: Liquid; for speed of sound: Frequency=3 MHz, Single path-length method; for mass density: Vibrating tube method

CC(C)O [propan-2-ol]
Details | mass density | speed of sound [m/s]
293.15 K, 100 kPa | 785.4 kg/m3 and 785.46 kg/m3 | 1157.5
293.15 K, 1000 kPa | 786.2 kg/m3 | –
293.15 K, 5000 kPa | 789.6 kg/m3 | –
293.15 K, 10000 kPa | 793.6 kg/m3 | –
293.15 K, 15000 kPa | 797.4 kg/m3 | –
293.15 K, 20000 kPa | 801.1 kg/m3 | –
293.15 K, 25000 kPa | 804.5 kg/m3 | –
293.15 K, 30000 kPa | 807.9 kg/m3 | –
293.15 K, 35000 kPa | 811.2 kg/m3 | –
293.15 K, 40000 kPa | 814.2 kg/m3 | –
293.15 K, 45000 kPa | 817.2 kg/m3 | –
293.15 K, 50000 kPa | 820.1 kg/m3 | –
293.15 K, 55000 kPa | 822.9 kg/m3 | –
293.15 K, 60000 kPa | 825.6 kg/m3 | –
293.15 K, 65000 kPa | 828.2 kg/m3 | –
293.15 K, 70000 kPa | 830.8 kg/m3 | –
293.15 K, 80000 kPa | 835.8 kg/m3 | –
293.15 K, 90000 kPa | 840.5 kg/m3 | –
293.15 K, 100000 kPa | 845 kg/m3 | –
293.15 K, 110000 kPa | 849.4 kg/m3 | –
293.15 K, 120000 kPa | 853.5 kg/m3 | –
293.15 K, 130000 kPa | 857.6 kg/m3 | –
293.15 K, 140000 kPa | 861.2 kg/m3 | –
298.15 K, 100 kPa | 781.27 kg/m3 and 781.4 kg/m3 | 1139.7
298.15 K, 1000 kPa | 782.1 kg/m3 | –
298.15 K, 5000 kPa | 785.6 kg/m3 | –
298.15 K, 10000 kPa | 789.8 kg/m3 | –
298.15 K, 15000 kPa | 793.7 kg/m3 | –
298.15 K, 20000 kPa | 797.3 kg/m3 | –
298.15 K, 25000 kPa | 800.9 kg/m3 | –
298.15 K, 30000 kPa | 804.3 kg/m3 | –
298.15 K, 35000 kPa | 807.7 kg/m3 | –
298.15 K, 40000 kPa | 810.8 kg/m3 | –
298.15 K, 45000 kPa | 813.8 kg/m3 | –
298.15 K, 50000 kPa | 816.7 kg/m3 | –
298.15 K, 55000 kPa | 819.7 kg/m3 | –
298.15 K, 60000 kPa | 822.5 kg/m3 | –
298.15 K, 65000 kPa | 825.2 kg/m3 | –
298.15 K, 70000 kPa | 827.6 kg/m3 | –
298.15 K, 80000 kPa | 832.8 kg/m3 | –
298.15 K, 90000 kPa | 837.5 kg/m3 | –
298.15 K, 100000 kPa | 842.3 kg/m3 | –
298.15 K, 110000 kPa | 846.4 kg/m3 | –
298.15 K, 120000 kPa | 850.8 kg/m3 | –
298.15 K, 130000 kPa | 854.8 kg/m3 | –
298.15 K, 140000 kPa | 858.7 kg/m3 | –
303.15 K, 100 kPa | 777 kg/m3 | 1122.6
313.15 K, 100 kPa | 768.21 kg/m3 and 768.2 kg/m3 | 1087.2
313.15 K, 1000 kPa | 769.1 kg/m3 | –
313.15 K, 5000 kPa | 773 kg/m3 | –
313.15 K, 10000 kPa | 777.4 kg/m3 | –
313.15 K, 15000 kPa | 781.8 kg/m3 | –
313.15 K, 20000 kPa | 785.7 kg/m3 | –
313.15 K, 25000 kPa | 789.5 kg/m3 | –
313.15 K, 30000 kPa | 793.3 kg/m3 | –
313.15 K, 35000 kPa | 796.9 kg/m3 | –
313.15 K, 40000 kPa | 800.1 kg/m3 | –
313.15 K, 45000 kPa | 803.4 kg/m3 | –
313.15 K, 50000 kPa | 806.5 kg/m3 | –
313.15 K, 55000 kPa | 809.6 kg/m3 | –
313.15 K, 60000 kPa | 812.5 kg/m3 | –
313.15 K, 65000 kPa | 815.4 kg/m3 | –
313.15 K, 70000 kPa | 818.2 kg/m3 | –
313.15 K, 80000 kPa | 823.4 kg/m3 | –
313.15 K, 90000 kPa | 828.5 kg/m3 | –
313.15 K, 100000 kPa | 833.1 kg/m3 | –
313.15 K, 110000 kPa | 837.8 kg/m3 | –
313.15 K, 120000 kPa | 842.1 kg/m3 | –
313.15 K, 130000 kPa | 846.4 kg/m3 | –
313.15 K, 140000 kPa | 850.4 kg/m3 | –
323.15 K, 100 kPa | 759.07 kg/m3 | 1051.8
333.15 K, 100 kPa | 749.42 kg/m3 and 749.4 kg/m3 | 1015.3
333.15 K, 1000 kPa | 750.5 kg/m3 | –
333.15 K, 5000 kPa | 754.9 kg/m3 | –
333.15 K, 10000 kPa | 760 kg/m3 | –
333.15 K, 15000 kPa | 764.9 kg/m3 | –
333.15 K, 20000 kPa | 769.3 kg/m3 | –
333.15 K, 25000 kPa | 773.6 kg/m3 | –
333.15 K, 30000 kPa | 777.7 kg/m3 | –
333.15 K, 35000 kPa | 781.5 kg/m3 | –
333.15 K, 40000 kPa | 785.3 kg/m3 | –
333.15 K, 45000 kPa | 788.9 kg/m3 | –
333.15 K, 50000 kPa | 792.3 kg/m3 | –
333.15 K, 55000 kPa | 795.6 kg/m3 | –
333.15 K, 60000 kPa | 798.7 kg/m3 | –
333.15 K, 65000 kPa | 801.8 kg/m3 | –
333.15 K, 70000 kPa | 804.8 kg/m3 | –
333.15 K, 80000 kPa | 810.5 kg/m3 | –
333.15 K, 90000 kPa | 815.9 kg/m3 | –
333.15 K, 100000 kPa | 820.9 kg/m3 | –
333.15 K, 110000 kPa | 825.8 kg/m3 | –
333.15 K, 120000 kPa | 830.4 kg/m3 | –
333.15 K, 130000 kPa | 834.8 kg/m3 | –
333.15 K, 140000 kPa | 839.2 kg/m3 | –
353.15 K, 1000 kPa | 729.8 kg/m3 | –
353.15 K, 5000 kPa | 735 kg/m3 | –
353.15 K, 10000 kPa | 741 kg/m3 | –
353.15 K, 15000 kPa | 746.5 kg/m3 | –
353.15 K, 20000 kPa | 751.7 kg/m3 | –
353.15 K, 25000 kPa | 756.5 kg/m3 | –
353.15 K, 30000 kPa | 761 kg/m3 | –
353.15 K, 35000 kPa | 765.4 kg/m3 | –
353.15 K, 40000 kPa | 769.3 kg/m3 | –
353.15 K, 45000 kPa | 773.3 kg/m3 | –
353.15 K, 50000 kPa | 777 kg/m3 | –
353.15 K, 55000 kPa | 780.6 kg/m3 | –
353.15 K, 60000 kPa | 784 kg/m3 | –
353.15 K, 65000 kPa | 787.4 kg/m3 | –
353.15 K, 70000 kPa | 790.6 kg/m3 | –
353.15 K, 80000 kPa | 796.7 kg/m3 | –
353.15 K, 90000 kPa | 802.6 kg/m3 | –
353.15 K, 100000 kPa | 808 kg/m3 | –
353.15 K, 110000 kPa | 813.2 kg/m3 | –
353.15 K, 120000 kPa | 818.1 kg/m3 | –
353.15 K, 130000 kPa | 822.8 kg/m3 | –
353.15 K, 140000 kPa | 827.3 kg/m3 | –
373.15 K, 1000 kPa | 706.6 kg/m3 | –
373.15 K, 5000 kPa | 712.8 kg/m3 | –
373.15 K, 10000 kPa | 719.9 kg/m3 | –
373.15 K, 15000 kPa | 726.3 kg/m3 | –
373.15 K, 20000 kPa | 732 kg/m3 | –
373.15 K, 25000 kPa | 737.7 kg/m3 | –
373.15 K, 30000 kPa | 742.9 kg/m3 | –
373.15 K, 35000 kPa | 747.8 kg/m3 | –
373.15 K, 40000 kPa | 752.2 kg/m3 | –
373.15 K, 45000 kPa | 756.6 kg/m3 | –
373.15 K, 50000 kPa | 760.7 kg/m3 | –
373.15 K, 55000 kPa | 764.7 kg/m3 | –
373.15 K, 60000 kPa | 768.6 kg/m3 | –
373.15 K, 65000 kPa | 772.1 kg/m3 | –
373.15 K, 70000 kPa | 775.6 kg/m3 | –
373.15 K, 80000 kPa | 782.3 kg/m3 | –
373.15 K, 90000 kPa | 788.5 kg/m3 | –
373.15 K, 100000 kPa | 794.4 kg/m3 | –
373.15 K, 110000 kPa | 799.9 kg/m3 | –
373.15 K, 120000 kPa | 805.3 kg/m3 | –
373.15 K, 130000 kPa | 810.2 kg/m3 | –
373.15 K, 140000 kPa | 815.1 kg/m3 | –
393.15 K, 1000 kPa | 680.4 kg/m3 | –
393.15 K, 5000 kPa | 688.2 kg/m3 | –
393.15 K, 10000 kPa | 696.7 kg/m3 | –
393.15 K, 15000 kPa | 704.4 kg/m3 | –
393.15 K, 20000 kPa | 711.4 kg/m3 | –
393.15 K, 25000 kPa | 717.6 kg/m3 | –
393.15 K, 30000 kPa | 723.5 kg/m3 | –
393.15 K, 35000 kPa | 729 kg/m3 | –
393.15 K, 40000 kPa | 734.2 kg/m3 | –
393.15 K, 45000 kPa | 739 kg/m3 | –
393.15 K, 50000 kPa | 743.5 kg/m3 | –
393.15 K, 55000 kPa | 747.9 kg/m3 | –
393.15 K, 60000 kPa | 752.1 kg/m3 | –
393.15 K, 65000 kPa | 756.1 kg/m3 | –
393.15 K, 70000 kPa | 760 kg/m3 | –
393.15 K, 80000 kPa | 767.2 kg/m3 | –
393.15 K, 90000 kPa | 773.9 kg/m3 | –
393.15 K, 100000 kPa | 780.2 kg/m3 | –
393.15 K, 110000 kPa | 786.2 kg/m3 | –
393.15 K, 120000 kPa | 791.8 kg/m3 | –
393.15 K, 130000 kPa | 797.2 kg/m3 | –
393.15 K, 140000 kPa | 802.3 kg/m3 | –
